# According to patent US10054581B1, “Inhibitors of notch signaling pathway and use thereof in treatment of cancers” (Ecole Polytechnique Federale de Lausanne (EPFL), priority 2011, dated 2018):
# Entries after “also recorded” stand apart in the source; their conditions may differ.
# Legend:
# [1] = target: T1, NICD, MAML1 and CSL/RBP-jk (Homo sapiens, UniProt P46531+Q06330+Q92585); assay: Microscopy of NICD-GFP, MAML1-FLAG and CSL/RBP-jk localization in HeLa cells; format: cell-based
# T1 construct: expressed in transfected cells; host or cells: HeLa cells (NICD-GFP and MAML1-FLAG transfected; CSL/RBP-jk endogenous)
# Experimental: To perform immunofluorescence staining, HeLa cells or C2C12 cells were grown on cover slips. Cells were washed with 1× ice-cold PBS, fixed with 4% PFA for 5 minutes at room temperature and permeabilized using 0.3% Triton X-100. Subsequently permeabilized cells were blocked for 20 minutes with 1% BSA for 20 minutes at room temperature. Cells were incubated with appropriate primary antibodies for […] at room temperature. Alexa Fluor-488 conjugated secondary antibodies were used to detect primary antibodies. Cells were counterstained with DAPI and mounted in fluorescent mounting media. Fluorescent images were viewed and captured using Zeiss Axioplan microscope at Bioimaging and optics core facility at EPFL.
# This raises several possibilities about the mechanism of action of 6-(4-Tert-Butylphenoxy)Pyridin-3-Amine (I3). For example, 6-(4-Tert-Butylphenoxy)Pyridin-3-Amine (I3) treatment could impair nuclear localization of the NICD. A second possible mechanism of inhibition could be targeting of one or more individual components of the transcriptional activation complex in the nucleus. […] In parallel, the 6-(4-Tert-Butylphenoxy)Pyridin-3-Amine (I3) mediated pathway inhibition was determined by Notch driven luciferase measurement (data not shown). […]
# [2] = system: Hes1 in DND41-Parental cells; assay: Hes1 Western blot in DND41-Parental cells; format: cell-based, human; conditions: 24 hours
# Experimental: Cells were lysed in RIPA buffer (50 mM Tris.Cl, pH 7.5, 150 mM NaCl, 1% nonidet P-40, 0.5% sodium deoxycholate and 0.1% SDS) for 30 minutes at 4° C. Lysed cells were centrifuged to remove the debris at 14000 rpm at 4° C. Supernatant was transferred to a new eppendorf tube. The protein concentration was determined by Bradford assay using spectrophotometer (Ultrospec 3000 pro). 40 μg of protein were denatured in 1×SDS gel loading buffer (100 mM Tris.Cl, pH 6.8, 200 mM DTT, 4% SDS, 0.2% bromophenol, 20% glycerol) by heating at 99° C. for 5 minutes. Denatured protein samples were stored on ice until loading on to the acrylamide gel. The samples were run on 8% or 10% acrylamide gel in Tris-glycine electrophoresis buffer (25 mM Tris, 250 mM glycine, 0.1% SDS). […]
# For immunoblotting, membranes were blocked with 5% milk and incubated overnight with primary antibodies at 4° C. […] Signal was detected with Super Signal West chemiluminescent substrate (Thermo Scientific, catalog number 34077).
# 6-(4-Tert-Butylphenoxy)Pyridin-3-Amine (I3) can block NICD mediated activation of the Notch pathway (FIGS. 1A-D). […] In addition, these two cell lines were also monitored over several days for anti-proliferative effects of 6-(4-Tert-Butylphenoxy)Pyridin-3-Amine (I3) and DAPT.
# PANC1 = assay: Alamar blue proliferation assay, PANC1; format: cell-based, human; conditions: 10 μM, 4 days
# Experimental: Human T-ALL cell lines RPMI 8402 and KOPTK1, and pancreatic cancer cell line PANC1 as well as nRas driven melanoma cells were seeded in a 96 well plate and treated with 10 μM concentration of 6-(4-Tert-Butylphenoxy)Pyridin-3-Amine (I3) and DAPT for several days. Their growth inhibitory effects were compared with cells treated with equal amount of DMSO. Using Alamar blue assay, the growth kinetics of RPMI 8402 and KOPTK1 were followed for upto 6 days, while PANC1 and nRas melanoma cells were monitored for 4 days. 6-(4-Tert-Butylphenoxy)Pyridin-3-Amine (I3) treatment of RPMI 8402, KOPTK1. […] Statistical analyses were done using student's t.test. *=p value<0.05. ns=not significant.
# Alamarblue® proliferation assays were performed to determine the growth kinetics of Notch inhibitor treated cells. Alamar Blue® consists of a cell permeable substrate resazurin. In metabolically active and proliferating cells, resazurin is converted to resorufin due to an intrinsic reducing power of live cells and produces a red fluorescence. Therefore production of resorufin serves as an indicator of the viability of the cell population.
# Proliferation assays were performed by seeding 5000 cells/well in a 96 well plate. Cells were treated with DMSO or Notch inhibitors for different time intervals. […] Alamarblue readout was taken using Tecan F500 (Tecan) multiplate reader. […]
# T1 sequence (P46531 1754-2555 limits assumed): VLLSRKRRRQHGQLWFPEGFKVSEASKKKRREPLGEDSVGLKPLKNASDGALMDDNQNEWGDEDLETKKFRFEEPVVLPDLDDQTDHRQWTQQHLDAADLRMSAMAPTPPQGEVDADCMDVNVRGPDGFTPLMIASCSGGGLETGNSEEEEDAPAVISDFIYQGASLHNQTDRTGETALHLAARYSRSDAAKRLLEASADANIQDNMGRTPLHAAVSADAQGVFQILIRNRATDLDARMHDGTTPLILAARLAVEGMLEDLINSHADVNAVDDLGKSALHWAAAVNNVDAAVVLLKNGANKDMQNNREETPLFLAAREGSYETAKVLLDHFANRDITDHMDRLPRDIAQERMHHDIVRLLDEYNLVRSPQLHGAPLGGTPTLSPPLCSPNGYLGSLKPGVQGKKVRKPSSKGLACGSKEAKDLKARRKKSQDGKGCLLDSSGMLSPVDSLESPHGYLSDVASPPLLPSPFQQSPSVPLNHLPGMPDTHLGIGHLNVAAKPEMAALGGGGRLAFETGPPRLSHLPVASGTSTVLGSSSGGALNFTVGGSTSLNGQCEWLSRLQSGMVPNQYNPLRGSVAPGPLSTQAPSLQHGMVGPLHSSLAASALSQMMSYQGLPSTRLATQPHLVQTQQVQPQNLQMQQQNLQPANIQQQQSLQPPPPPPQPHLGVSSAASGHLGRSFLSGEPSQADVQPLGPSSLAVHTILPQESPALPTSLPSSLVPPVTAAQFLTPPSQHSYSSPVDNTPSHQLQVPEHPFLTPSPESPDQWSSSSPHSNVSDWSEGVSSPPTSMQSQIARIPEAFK
# T1 sequence (Q92585 whole entry): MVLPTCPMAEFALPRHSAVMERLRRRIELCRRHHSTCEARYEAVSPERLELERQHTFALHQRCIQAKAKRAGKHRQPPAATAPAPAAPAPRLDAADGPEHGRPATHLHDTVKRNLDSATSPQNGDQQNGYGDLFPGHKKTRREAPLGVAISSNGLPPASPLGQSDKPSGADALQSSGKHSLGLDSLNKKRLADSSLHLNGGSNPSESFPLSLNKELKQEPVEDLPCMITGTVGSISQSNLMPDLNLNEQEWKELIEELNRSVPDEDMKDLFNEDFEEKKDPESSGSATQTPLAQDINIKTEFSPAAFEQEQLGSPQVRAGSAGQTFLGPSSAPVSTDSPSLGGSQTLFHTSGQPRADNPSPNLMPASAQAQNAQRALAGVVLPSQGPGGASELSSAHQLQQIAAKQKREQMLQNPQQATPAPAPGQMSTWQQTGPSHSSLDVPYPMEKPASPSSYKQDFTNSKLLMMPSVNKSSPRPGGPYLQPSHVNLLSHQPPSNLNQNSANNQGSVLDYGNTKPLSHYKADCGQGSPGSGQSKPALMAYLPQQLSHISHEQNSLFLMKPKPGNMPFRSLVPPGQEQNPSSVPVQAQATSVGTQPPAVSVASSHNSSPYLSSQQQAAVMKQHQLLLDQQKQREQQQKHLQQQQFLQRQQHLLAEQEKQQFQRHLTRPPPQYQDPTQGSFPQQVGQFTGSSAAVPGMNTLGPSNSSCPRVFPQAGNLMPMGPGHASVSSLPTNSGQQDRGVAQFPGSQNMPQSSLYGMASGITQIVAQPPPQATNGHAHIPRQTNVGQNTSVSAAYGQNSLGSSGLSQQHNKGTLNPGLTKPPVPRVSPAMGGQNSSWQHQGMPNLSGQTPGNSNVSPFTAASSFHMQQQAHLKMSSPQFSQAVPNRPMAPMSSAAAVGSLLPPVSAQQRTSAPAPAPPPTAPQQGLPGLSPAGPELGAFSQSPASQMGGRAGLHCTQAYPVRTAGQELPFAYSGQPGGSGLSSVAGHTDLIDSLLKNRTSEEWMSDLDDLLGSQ
# T1 sequence (Q06330 whole entry): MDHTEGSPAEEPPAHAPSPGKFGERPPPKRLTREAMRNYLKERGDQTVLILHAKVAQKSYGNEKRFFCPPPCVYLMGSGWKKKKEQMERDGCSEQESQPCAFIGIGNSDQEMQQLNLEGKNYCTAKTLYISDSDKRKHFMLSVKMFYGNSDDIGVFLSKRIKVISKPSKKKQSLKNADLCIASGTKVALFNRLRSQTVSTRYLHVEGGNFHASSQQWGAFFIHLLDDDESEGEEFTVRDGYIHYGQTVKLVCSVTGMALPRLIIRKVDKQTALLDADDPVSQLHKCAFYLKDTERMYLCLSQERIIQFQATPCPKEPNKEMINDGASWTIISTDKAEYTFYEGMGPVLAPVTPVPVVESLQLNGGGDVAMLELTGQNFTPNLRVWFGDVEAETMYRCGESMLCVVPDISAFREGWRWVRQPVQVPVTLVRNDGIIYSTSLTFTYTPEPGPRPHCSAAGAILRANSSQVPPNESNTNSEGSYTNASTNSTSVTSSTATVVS
Compound,"co-localization of NICD, MAML1 and CSL/RBP-jk in sub-nuclear compartments ([1]; 800 ng NICD-GFP + 1 μg MAML1-FLAG, I3 10 μM, 24 hours)",nuclear localization of NICD-GFP ([1]; HeLa cells transfected with NICD-GFP),Hes1 protein [2],proliferation (Alamar blue) (PANC1)
"CC(C)(C)c1ccc(Oc2ccc(N)cn2)cc1 [I3, 6-(4-Tert-Butylphenoxy)Pyridin-3-Amine]","did not perturb the translocation and co-localization of NICD-GFP and MAML1 into sub-nuclear compartment; also recorded: did not perturb their distribution in the nucleus; also recorded: does not impede co-localization of NICD, MAML1 and CSL/RBP-jk in the sub-nuclear compartments",not perturbed; also recorded: did not alter its nuclear localization,led to a downregulation of Hes1; also recorded: caused a downregulation of Hes1 in DND41-Parental cells,induced a significant proliferation block; also recorded: caused a significant reduction in their growth potential
"C[C@H](NC(=O)Cc1cc(F)cc(F)c1)C(=O)N[C@H](C(=O)OC(C)(C)C)c1ccccc1 [DAPT, N—[N-(3,5-difluorophenacetyl-Lalanyl)]-(S)-phenylglycine t-butyl ester, reference compound]",–,–,led to a downregulation of Hes1; also recorded: caused a downregulation of Hes1 in DND41-Parental cells,induced a significant proliferation block
